Values after ≈ are worked out from the molar mass of the structure shown. Active and inactive are the calls of the source. The calls are words filed in the database; no cut-off is given here.
Assays:
Escherichia coli [1] = experiment: Antibacterial activity against Escherichia coli NCIM 2065 at 500 ug/disk after 24 hr by disk diffusion method; assay type: functional; conditions: NCIM 2065, 24 h, read-out: DIZ
Pseudomonas aeruginosa [2] = experiment: Antibacterial activity against Pseudomonas aeruginosa NCIM 2200 at 500 ug/disk after 24 hr by disk diffusion method; assay type: functional; conditions: NCIM 2200, 24 h, read-out: DIZ
Streptomyces albus [3] = experiment: Antibacterial activity against Streptomyces albus NCIM 2178 after 24 hr by broth dilution assay; assay type: functional; conditions: NCIM 2178, 24 h
Bacillus subtilis [4] = experiment: Antibacterial activity against Bacillus subtilis NCIM 2063 at 1000 ug/disk after 24 hr by disk diffusion method; assay type: functional; conditions: NCIM 2063, 24 h, read-out: DIZ
Klebsiella aerogenes [5] = experiment: Antibacterial activity against Enterobacter aerogenes NCIM 2239 at 1000 ug/disk after 24 hr by disk diffusion method; assay type: functional; conditions: NCIM 2239, 24 h, read-out: DIZ
Klebsiella aerogenes [6] = experiment: Antibacterial activity against Enterobacter aerogenes NCIM 2239 at 500 ug/disk after 24 hr by disk diffusion method; assay type: functional; conditions: for zone of inhibition at 500 µg/disc: NCIM 2239, 24 h, read-out: DIZ
Rhodotorula mucilaginosa [7] = experiment: Antifungal activity against Rhodotorula mucilaginosa NCIM 3174 after 72 hr by broth dilution assay; assay type: functional; conditions: NCIM 3174, 72 h
Aspergillus niger [8] = experiment: Antifungal activity against Aspergillus niger NCIM 1196 at 500 ug/disk after 72 hr by disk diffusion method; assay type: functional
Lipomyces lipofer [9] = experiment: Antifungal activity against Lipomyces lipofer NCIM 3252 at 1000 ug/disk after 72 hr by disk diffusion method; assay type: functional; conditions: NCIM 3252, 72 h, read-out: DIZ
Lipomyces lipofer [10] = experiment: Antifungal activity against Lipomyces lipofer NCIM 3252 after 72 hr by broth dilution assay; assay type: functional; conditions: NCIM 3252, 72 h
Streptomyces albus [11] = experiment: Antibacterial activity against Streptomyces albus NCIM 2178 at 500 ug/disk after 24 hr by disk diffusion method; assay type: functional, organism-based
Bacillus subtilis [12] = experiment: Antibacterial activity against Bacillus subtilis NCIM 2063 at 500 ug/disk after 24 hr by disk diffusion method; assay type: functional; conditions: for zone of inhibition at 500 µg/disc: NCIM 2063, 24 h, read-out: DIZ
Aspergillus niger [13] = experiment: Antifungal activity against Aspergillus niger NCIM 1196 after 72 hr by broth dilution assay; assay type: functional; conditions: NCIM 1196, 72 h
Bacillus subtilis [14] = experiment: Antibacterial activity against Bacillus subtilis NCIM 2063 after 24 hr by broth dilution assay; assay type: functional; conditions: NCIM 2063, 24 h
Bacillus cereus [15] = experiment: Antibacterial activity against Bacillus cereus NCIM 2155 at 500 ug/disk after 24 hr by disk diffusion method; assay type: functional; conditions: NCIM 2155, 24 h, read-out: DIZ
Rhodotorula mucilaginosa [16] = experiment: Antifungal activity against Rhodotorula mucilaginosa NCIM 3174 at 500 ug/disk after 72 hr by disk diffusion method; assay type: functional
Penicillium chrysogenum [17] = experiment: Antifungal activity against Penicillium chrysogenum NCIM 707 at 500 ug/disk after 72 hr by disk diffusion method; assay type: functional
Klebsiella aerogenes [18] = experiment: Antibacterial activity against Enterobacter aerogenes NCIM 2239 after 24 hr by broth dilution assay; assay type: functional; conditions: NCIM 2239, 24 h
Aspergillus flavus [19] = experiment: Antifungal activity against Aspergillus flavus NCIM 535 at 1000 ug/disk after 72 hr by disk diffusion method; assay type: functional; conditions: NCIM 535, 72 h, read-out: DIZ
Streptomyces albus [20] = experiment: Antibacterial activity against Streptomyces albus NCIM 2178 at 1000 ug/disk after 24 hr by disk diffusion method; assay type: functional
Rhodotorula mucilaginosa [21] = experiment: Antifungal activity against Rhodotorula mucilaginosa NCIM 3174 at 1000 ug/disk after 72 hr by disk diffusion method; assay type: functional; conditions: NCIM 3174, 72 h, read-out: DIZ
Pseudomonas aeruginosa [22] = experiment: Antibacterial activity against Pseudomonas aeruginosa NCIM 2200 at 1000 ug/disk after 24 hr by disk diffusion method; assay type: functional; conditions: NCIM 2200, 24 h, read-out: DIZ
Aspergillus niger [23] = experiment: Antifungal activity against Aspergillus niger NCIM 1196 at 1000 ug/disk after 72 hr by disk diffusion method; assay type: functional; conditions: for zone of inhibition at 1000 µg/disc: NCIM 1196, 72 h, read-out: DIZ
Candida albicans [24] = experiment: Antifungal activity against Candida albicans NCIM 3471 at 500 ug/disk after 72 hr by disk diffusion method; assay type: functional; conditions: for zone of inhibition at 500 µg/disc: NCIM 3471, 72 h, read-out: DIZ
Aspergillus flavus [25] = experiment: Antifungal activity against Aspergillus flavus NCIM 535 after 72 hr by broth dilution assay; assay type: functional; conditions: NCIM 535, 72 h
Pseudomonas aeruginosa [26] = experiment: Antibacterial activity against Pseudomonas aeruginosa NCIM 2200 after 24 hr by broth dilution assay; assay type: functional; conditions: NCIM 2200, 24 h
Penicillium chrysogenum [27] = experiment: Antifungal activity against Penicillium chrysogenum NCIM 707 at 1000 ug/disk after 72 hr by disk diffusion method; assay type: functional; conditions: NCIM 707, 72 h, read-out: DIZ
Bacillus cereus [28] = experiment: Antibacterial activity against Bacillus cereus NCIM 2155 at 1000 ug/disk after 24 hr by disk diffusion method; assay type: functional; conditions: NCIM 2155, 24 h, read-out: DIZ
Penicillium chrysogenum [29] = experiment: Antifungal activity against Penicillium chrysogenum NCIM 707 after 72 hr by broth dilution assay; assay type: functional; conditions: NCIM 707, 72 h
Bacillus cereus [30] = experiment: Antibacterial activity against Bacillus cereus NCIM 2155 after 24 hr by broth dilution assay; assay type: functional; conditions: NCIM 2155, 24 h
Escherichia coli [31] = experiment: Antibacterial activity against Escherichia coli NCIM 2065 after 24 hr by broth dilution assay; assay type: functional; conditions: NCIM 2065, 24 h
Escherichia coli [32] = experiment: Antibacterial activity against Escherichia coli NCIM 2065 at 1000 ug/disk after 24 hr by disk diffusion method; assay type: functional; conditions: NCIM 2065, 24 h, read-out: DIZ
Aspergillus flavus [33] = experiment: Antifungal activity against Aspergillus flavus NCIM 535 at 500 ug/disk after 72 hr by disk diffusion method; assay type: functional
Candida albicans [34] = experiment: Antifungal activity against Candida albicans NCIM 3471 after 72 hr by broth dilution assay; assay type: functional; conditions: NCIM 3471, 72 h
Lipomyces lipofer [35] = experiment: Antifungal activity against Lipomyces lipofer NCIM 3252 at 500 ug/disk after 72 hr by disk diffusion method; assay type: functional; conditions: NCIM 3252, 72 h, read-out: DIZ
Candida albicans [36] = experiment: Antifungal activity against Candida albicans NCIM 3471 at 1000 ug/disk after 72 hr by disk diffusion method; assay type: functional; conditions: for zone of inhibition at 1000 µg/disc: NCIM 3471, 72 h, read-out: DIZ

| Compound | zone of inhibition at 500 µg/disc (Escherichia coli [1]) | zone of inhibition at 500 µg/disc (Pseudomonas aeruginosa [2]) | zone of inhibition at 1000 µg/disc (Bacillus subtilis [4]) | zone of inhibition at 1000 µg/disc (Klebsiella aerogenes [5]) | zone of inhibition at 1000 µg/disc (Lipomyces lipofer [9]) | MIC (Lipomyces lipofer [10]) | diameter of the inhibition zone (DIZ) (Streptomyces albus [11]) | MIC (Bacillus subtilis [14]) | zone of inhibition at 500 µg/disc (Bacillus cereus [15]) | MIC (Klebsiella aerogenes [18]) | zone of inhibition at 1000 µg/disc (Aspergillus flavus [19]) | zone of inhibition at 1000 µg/disc (Rhodotorula mucilaginosa [21]) | zone of inhibition at 1000 µg/disc (Pseudomonas aeruginosa [22]) | MIC (Pseudomonas aeruginosa [26]) | zone of inhibition at 1000 µg/disc (Penicillium chrysogenum [27]) | zone of inhibition at 1000 µg/disc (Bacillus cereus [28]) | MIC (Bacillus cereus [30]) | MIC (Escherichia coli [31]) | zone of inhibition at 1000 µg/disc (Escherichia coli [32]) | zone of inhibition at 500 µg/disc (Lipomyces lipofer [35]) | further results |
| --- | --- | --- | --- | --- | --- | --- | --- | --- | --- | --- | --- | --- | --- | --- | --- | --- | --- | --- | --- | --- | --- |
| O=c1[nH]c(=O)c2cc3ccccc3nc2[nH]1 | 11 mm | 10 mm | 11 mm | 11 mm | 11 mm | 62.5 µg/mL (≈ 293 µM) | inactive | 15.6 µg/mL (≈ 73.2 µM) | 9 mm | 31.2 µg/mL (≈ 146 µM) | 14 mm | 11 mm | 14 mm | 31.2 µg/mL (≈ 146 µM) | 13 mm | 13 mm | 31.2 µg/mL (≈ 146 µM) | 3.9 µg/mL (≈ 18.3 µM) | 13 mm | 9 mm | MIC (Streptomyces albus [3]): 31.2 µg/mL (≈ 146 µM); zone of inhibition at 500 µg/disc (Klebsiella aerogenes [6]): 8 mm; MIC (Rhodotorula mucilaginosa [7]): 7.8 µg/mL (≈ 36.6 µM); diameter of the inhibition zone (DIZ) (Aspergillus niger [8]): inactive; zone of inhibition at 500 µg/disc (Bacillus subtilis [12]): 8 mm; MIC (Aspergillus niger [13]): 125 µg/mL (≈ 586 µM); zone of inhibition at 500 µg/disc (Rhodotorula mucilaginosa [16]; NCIM 3174, 72 h, read-out: DIZ): 10 mm; zone of inhibition at 500 µg/disc (Penicillium chrysogenum [17]; NCIM 707, 72 h, read-out: DIZ): 8 mm; zone of inhibition at 1000 µg/disc (Streptomyces albus [20]; NCIM 2178, 24 h, read-out: DIZ): 13 mm; zone of inhibition at 1000 µg/disc (Aspergillus niger [23]): 10 mm; zone of inhibition at 500 µg/disc (Candida albicans [24]): 9 mm; MIC (Aspergillus flavus [25]): 3.9 µg/mL (≈ 18.3 µM); MIC (Penicillium chrysogenum [29]): 7.8 µg/mL (≈ 36.6 µM); zone of inhibition at 500 µg/disc (Aspergillus flavus [33]; NCIM 535, 72 h, read-out: DIZ): 11 mm; MIC (Candida albicans [34]): 15.6 µg/mL (≈ 73.2 µM); zone of inhibition at 1000 µg/disc (Candida albicans [36]): 12 mm |
| COc1ccc2nc3[nH]c(=O)[nH]c(=O)c3cc2c1 | 10 mm | 9 mm | 9 mm | 13 mm | 11 mm | 31.2 µg/mL (≈ 128 µM) | inactive | 62.5 µg/mL (≈ 257 µM) | 9 mm | 3.9 µg/mL (≈ 16 µM) | 9 mm | 10 mm | 13 mm | 31.2 µg/mL (≈ 128 µM) | 9 mm | 12 mm | 31.2 µg/mL (≈ 128 µM) | 7.8 µg/mL (≈ 32.1 µM) | 12 mm | 9 mm | zone of inhibition at 500 µg/disc (Klebsiella aerogenes [6]): 10 mm; MIC (Rhodotorula mucilaginosa [7]): 15.6 µg/mL (≈ 64.1 µM); diameter of the inhibition zone (DIZ) (Aspergillus niger [8]): inactive; diameter of the inhibition zone (DIZ) (Bacillus subtilis [12]): inactive; diameter of the inhibition zone (DIZ) (Rhodotorula mucilaginosa [16]): inactive; diameter of the inhibition zone (DIZ) (Penicillium chrysogenum [17]): inactive; diameter of the inhibition zone (DIZ) (Streptomyces albus [20]): inactive; diameter of the inhibition zone (DIZ) (Aspergillus niger [23]): inactive; zone of inhibition at 500 µg/disc (Candida albicans [24]): 9 mm; MIC (Penicillium chrysogenum [29]): 62.5 µg/mL (≈ 257 µM); diameter of the inhibition zone (DIZ) (Aspergillus flavus [33]): inactive; MIC (Candida albicans [34]): 31.2 µg/mL (≈ 128 µM); zone of inhibition at 1000 µg/disc (Candida albicans [36]): 10 mm |
| COc1cccc2cc3c(=O)[nH]c(=S)[nH]c3nc12 | 9 mm | 10 mm | 13 mm | 12 mm | 14 mm | 125 µg/mL (≈ 482 µM) | inactive | 7.8 µg/mL (≈ 30.1 µM) | 9 mm | 31.2 µg/mL (≈ 120 µM) | 13 mm | 9 mm | 13 mm | 7.8 µg/mL (≈ 30.1 µM) | 12 mm | 12 mm | 62.5 µg/mL (≈ 241 µM) | 62.5 µg/mL (≈ 241 µM) | 11 mm | 11 mm | diameter of the inhibition zone (DIZ) (Klebsiella aerogenes [6]): inactive; zone of inhibition at 500 µg/disc (Aspergillus niger [8]; NCIM 1196, 72 h, read-out: DIZ): 8 mm; zone of inhibition at 500 µg/disc (Bacillus subtilis [12]): 10 mm; MIC (Aspergillus niger [13]): 125 µg/mL (≈ 482 µM); diameter of the inhibition zone (DIZ) (Rhodotorula mucilaginosa [16]): inactive; diameter of the inhibition zone (DIZ) (Penicillium chrysogenum [17]): inactive; diameter of the inhibition zone (DIZ) (Streptomyces albus [20]): inactive; zone of inhibition at 1000 µg/disc (Aspergillus niger [23]): 10 mm; diameter of the inhibition zone (DIZ) (Candida albicans [24]): inactive; MIC (Aspergillus flavus [25]): 125 µg/mL (≈ 482 µM); diameter of the inhibition zone (DIZ) (Aspergillus flavus [33]): inactive; diameter of the inhibition zone (DIZ) (Candida albicans [36]): inactive |
